Drawing on PubChem BioAssay AID2305 (GlaxoSmithKline (GSK), 2010), this text covers IC50 for 86 compounds.

In this assay the test system is P. falciparum 3D7 growth, pLDH absorbance. Put plainly: blood-stage malaria parasite growth potency – strain 3D7, dose response (AID 2305).
Consider `Cc1cc(C(=O)Nc2nc(-c3ccccn3)nc3ccsc23)no1`, for which the IC50 (as a rule, the concentration needed to halve the response being measured) turned out to be 810 nM. To `CCN(CCCN1CCCCC1)c1cc(C)nc(Nc2cc(Cl)ccc2C)n1` belongs 630 nM. Compound `O=C(Nc1cccc(-c2nn3ccccc3c2-c2ccnc(Nc3cccc(F)c3)n2)c1)c1c(F)ccc(F)c1F` came in with a concentration for half-maximal inhibition (IC50) of 860 nM. With `COc1ccc2nccc([C@@H](O)CN3CCC(NC(=O)c4ccc(OC)c(N)c4)CC3)c2c1`, the IC50 was determined as 710 nM.

Compound `CC1CN(Cc2ccccc2)CCN1c1ccc(NC(=O)c2cccs2)cc1` (stereo unspecified) returned an IC50 of 280 nM.

The compound `CCCNC(=O)c1ccc(N2CCC(c3ccccc3C)CC2)nc1` registered an IC50 of 1520 nM.

The compound `CCCCCCCCN1CCCN(C(=O)c2cccc(NC(=O)Nc3ccc4ccccc4c3)c2)CC1` gave an IC50 of 760 nM.

In turn, `C=CCn1ccc2c3c(N)nc(N)nc3ccc21` displayed an IC50 of 70 nM. The same measure for `NOCCCCOc1ccccc1`: 180 nM. To `CN(C)CCCNCCS(=O)(=O)c1cccc(Nc2ccc(-c3cccc(N(C)C)c3)cn2)c1` belongs 860 nM. On to `COc1ccc(C2C(C(=O)OC3CCCCC3)=C(C)NC3=C2C(=O)CCC3)cc1Br` (stereo unspecified), for which the IC50 worked out at 580 nM.

As for `Cn1cccc1C(=O)C(=O)Nc1cccc(-c2ccc(-c3nc4ccc(C(F)(F)F)cc4[nH]3)cc2)c1`, the IC50 was 790 nM. The same measure for `CS(=O)(=O)Cc1cccc(Nc2ncc(Cl)c(Nc3cccnc3C(N)=O)n2)c1`: 170 nM; for `CN1CCC(Oc2ccc(CN3CC[C@H](NC(=O)c4ccc(Cl)c(F)c4)C3)c3ccccc23)C1` (stereo partly specified): 740 nM. As to `COCCN(C(=O)Cc1cccs1)C(C(=O)NCc1ccc(OC)cc1)c1ccc(C(C)C)cc1` (stereo unspecified), the IC50 was determined as 840 nM. `CCOC(=O)C(C(=O)OCC)c1nc(C)ns1` displayed an IC50 of 470 nM. To `COc1ccc2ncc(Cl)c(N3CCC(CCNCc4ccc5c(n4)NC(=O)CS5)CC3)c2c1` belongs 960 nM; to `COc1ccc2nccc([C@@H](O)CN3CCC(NCc4cc5cccc(O)c5[nH]4)CC3)c2c1`, 840 nM; to `O=C(/C=C/c1ccc(Cl)c(Cl)c1)N1CCC(C(O)CN2CCC(c3c[nH]c4ccccc34)CC2)CC1` (stereo unspecified), 860 nM. Consider `COc1ccccc1CN1CCC(CNC(=O)c2cc(-c3ccc(N(C)C)cc3)cs2)C1` (stereo unspecified), for which the IC50 turned out to be 1270 nM. To `NC(N)=NCCCN(Cc1ccccc1)c1ccccc1` belongs 580 nM; to `O=C(/C=C/c1ccc(Cl)c(Cl)c1)NCCCCCCN1CCCN(C(=O)Nc2cccc(C(F)(F)F)c2)CC1`, 790 nM. For the compound `O=C(OCc1ccccc1)N1CCc2c([nH]c3ccccc23)C1CCC(F)(F)F` (stereo unspecified), the IC50 was 420 nM.

In turn, `Cc1ccc(C2CCN(CCCCNC(=O)c3ccc(NC(=O)c4ccc(Cl)cc4)cc3)CC2)c(OCC(F)(F)F)c1` came in with an IC50 of 280 nM. Regarding `Cc1cccc2[nH]c(-c3ccc(-c4ccc(CN5CCN(CC6CCCN(C)C6)CC5)cc4)s3)nc12` (stereo unspecified), the IC50 worked out at 140 nM. With `CCOC(=O)c1ccc(CC(C)NCC(O)c2cccc(C(F)(F)F)c2)cc1` (stereo unspecified), the concentration for half-maximal inhibition (IC50) was found to be 220 nM. `O=C(Nc1cccc(-c2cccc(-c3nc4ccc(C(F)(F)F)cc4[nH]3)c2)c1)c1cccnc1Cl`: the IC50 was 660 nM. The same measure for `CN1CCC(Oc2cc(NC(=O)Nc3ccc(-c4ccncc4)c(Cl)c3)ccc2Cl)CC1`: 530 nM; for `O=c1cc(NCCCNCc2sc(Br)nc2Br)[nH]c2ccccc12`: 870 nM.

`O=C(C=Cc1ccc(Cl)c(Cl)c1)NCCCCCN1CCCC(CCCNS(=O)(=O)c2cccc(C(F)(F)F)c2)C1` (stereo unspecified) returned a half-maximal inhibitory concentration (IC50) of 960 nM.

`COc1ccc2nc(C)cc(NN=Cc3ccc([N+](=O)[O-])o3)c2c1` gave an IC50 of 700 nM. To `O=S(=O)(c1cc2ccccc2s1)N(CCC(O)(C(F)(F)F)C(F)(F)F)Cc1cccc(O)c1` belongs 750 nM; to `Brc1ccc(C=NNc2nc3ccccc3[nH]2)cc1`, 700 nM; to `Cc1ccc(-c2ccc(NC(=O)N3CCc4cc(Br)c(N5CCN(C)CC5)cc43)cc2)cn1`, 1350 nM. The same measure for `CC(C)N1CCN(C(CN2CCN(CCCOc3cccc(-c4ccccc4)c3)CC2)c2ccc(F)cc2)CC1` (stereo unspecified): 890 nM.

In turn, `CCCC(C)Nc1nc(C)cc(N[C@@H](Cc2ccccc2)C(=O)NCc2cccc(F)c2)n1` (stereo partly specified) showed a 50% inhibitory concentration (IC50) of 880 nM.

The compound `CC(C)(C)OC(=O)/C=C(\C(=O)OCc1ccc([N+](=O)[O-])cc1)c1csc(NC(c2ccccc2)(c2ccccc2)c2ccccc2)n1` had an IC50 of 860 nM. `CN(C)CCCOc1ccc(CN2CCC(c3c[nH]c4ccc(NCC5CCCCC5)cc34)CC2)cc1` had a half-inhibitory concentration (IC50) of 680 nM. The same measure for `CCN(CC)CCNc1ccnc2c3ccccc3n(C)c12`: 240 nM; for `CC(=O)c1ccc2c(c1)[C@H](NC(=O)c1cccc(Cl)c1Cl)[C@@H](CO)C(C)(C)O2`: 690 nM. `N#Cc1ccc(CN2CCCN(Cc3cccc(NC(=O)c4cc5ccccc5s4)c3)CC2)cc1` came in with a concentration for half-maximal inhibition (IC50) of 910 nM. To `O=C(/C=C/c1ccc(Cl)cc1)NCCCCCN1CCC(c2c[nH]c3ccccc23)CC1` belongs 840 nM. The same measure for `CN(C)CCN1CCN(Cc2ccc(-c3cccc(-c4nc5ccccc5[nH]4)c3)cc2)CC1`: 200 nM; for `CCOC(=O)c1cc(=O)c2ccc(OCC#N)cc2o1`: 1030 nM; for `O=C(C=Cc1ccc(C(=O)Nc2ccc(C3=NCCN3)cc2)cc1)Nc1ccc(C2=NCCN2)cc1`: 30 nM. To `COc1ccc(CNC2CCN(C)CC2)cc1-c1ccc(S(=O)(=O)NCCc2ccccn2)cc1` belongs 1090 nM; to `Cc1noc(C)c1-c1cccc(CNCc2ccc(-c3cccc(-c4nc5ccccc5[nH]4)c3)cc2)c1`, 570 nM; to `COc1ccc(-c2nc(NC(=O)Cc3coc4cc(OC)ccc34)sc2C)cc1`, 610 nM.

With `CCOC(=O)c1ccc(N2CCN(c3cc(Cl)ccc3C)CC2)c(NC(=O)Nc2ccc(Cl)c(Cl)c2)c1`, the IC50 is 580 nM.

As for `COc1ccc(S(=O)(=O)NC2CCN(c3ccc(C(F)(F)F)cc3NC(=O)OCC(C)C)CC2)cc1`, the IC50 came out at 1220 nM. Turning to `O=c1cnc2ccc(F)cc2n1CCN1CCC(NCc2cc(-c3ccccc3)cs2)CC1`, the IC50 is 860 nM. To `CCCCNC[C@@H](O)[C@H](Cc1ccccc1)NC(=O)c1cc(NCC)cc(N2CCCCS2(=O)=O)c1` belongs 400 nM; to `CCOc1ccc(C2CCN(CCN3CCC(NC(=O)c4ccc(-c5ccc(C(F)(F)F)cc5)cc4)CC3)CC2)c(OCC2CC2)c1`, 830 nM. The same measure for `COc1cc2ccccc2cc1OCCCN1CCN(CC(c2ccc(F)cc2)N2CCN(C(C)C)CC2)CC1` (stereo unspecified): 750 nM; for `COc1cc(F)c2ncc(C#N)c(CCN3CCC(NCc4ccc5c(c4)OCCO5)CC3)c2c1`: 430 nM. `CCc1cc(Br)c2c(c1)C(NCCCNc1cc(=O)c3ccccc3[nH]1)CCN2` (stereo unspecified) displayed an IC50 of 850 nM. In turn, `CN1CCCN(Cc2cccc(-c3ccc(NS(=O)(=O)c4cccc5cccnc45)cc3)c2)CC1` displayed an IC50 of 960 nM. Regarding `O=C(CSc1nc(-c2ccccc2Cl)ns1)Nc1cccc(F)c1`, the IC50 came to 1110 nM. In turn, `Nc1nc(N)c2c(Cc3ccc(Br)cc3)cccc2n1` had a half-inhibitory concentration (IC50) of 770 nM. To `COc1ccc(-c2cccc(NC(=O)c3cccc(C#N)c3)c2)cc1CNC(C)C` belongs 690 nM; to `CCCCNC(c1ccc(Cl)cc1)C(O)c1ccc(Cl)cc1` (stereo unspecified), 620 nM. With `CCOc1cc(NCCSCc2nc[nH]c2C)nc2ccccc12`, the IC50 was 790 nM. To `CCN(CC)CCCC(C)Nc1c2cc(OC)ccc2nc2cc(Cl)c([N+](=O)[O-])cc12` (stereo unspecified) belongs 790 nM; to `O=C(/C=C/c1cccs1)NC1CCC(CN2CCC(c3c[nH]c4ccccc34)CC2)CC1` (stereo unspecified), 1050 nM; to `CCCCNc1c(C(=O)OCC)c(C)nc2c1[nH]c1ccccc12`, 680 nM. `CC(C)N1CCC(NC(=O)N2CCCN(c3ncnc4cc(-c5ccc(Cl)cc5)sc34)CC2)CC1` gave an IC50 of 1940 nM. To `Cc1[nH]n(-c2cccc(C(F)(F)F)c2)c(=O)c1-c1ccc(Cl)cc1` belongs 860 nM; to `CCOC(=O)c1ccc(NC(=O)Nc2ccc(-c3cccc(-c4nc5ccccc5[nH]4)c3)cc2)cc1`, 140 nM. Compound `CCCc1cc(Cc2cnc(N)nc2N)cc(CCC)c1OCCCC(=O)OCC` registered an IC50 of 50 nM. The same measure for `COc1cc2c(cc1S(=O)(=O)c1ccc(NC(=O)c3cc4ccccc4s3)cc1)CCN(C)CC2`: 840 nM; for `c1ccc2cc3c(Nc4ccc(N5CCCCC5)cc4)ccnc3cc2c1`: 740 nM; for `FC(F)(F)Oc1ccc(-c2cnc3ccc(NCc4ccncc4)nn23)cc1`: 870 nM. To `CCOc1ccc(-c2nc(NC(=O)CS(=O)(=O)c3ccccc3)sc2C)cc1` belongs 510 nM; to `NC(N)=Nc1nc(-c2cccc(NC(=O)CCCCCCCON3C(N)=NC(N)=NC34CCCCC4)c2)cs1`, 40 nM; to `CC(C)C[C@@H](NC(=O)OC(C)(C)C)C(=O)Nc1ccc(Cc2ccc(NC(=O)[C@@H](CC(C)C)NC(=O)OC(C)(C)C)cc2)cc1`, 210 nM.

On to `C[C@@H]1CN(c2cnn(Cc3cccc(NC(=O)Nc4ccc(F)cc4[N+](=O)[O-])c3)c(=O)c2Cl)C[C@H](C)N1`, for which the IC50 was 870 nM. To `CCN1CCN(CC(O)CNC(=O)Nc2ccc(Cl)cc2)CC1` (stereo unspecified) belongs 150 nM.

`CCCCCn1c(Sc2ccc(C#N)c([N+](=O)[O-])c2)nnc1-c1cc(OC)cc(OC)c1` returned an IC50 of 960 nM. The same measure for `CC12CCC(C(=O)N(CC(O)Cn3c4ccc(Cl)cc4c4cc(Cl)ccc43)C1=O)C2(C)C` (stereo unspecified): 840 nM; for `O=C(NCCCCN1CCN(c2nsc3ccccc23)CC1)c1ccccc1C(=O)NCCCCN1CCN(c2nsc3ccccc23)CC1`: 890 nM. As for `COc1ccc(C(=O)CCC(=O)N(Cc2ccc(-c3ccc(CNCc4cccnc4)cn3)cc2)C2CCN(Cc3ccccc3)CC2)cc1F`, the IC50 was determined as 980 nM. `CN(C)CCOc1ccc(NC(=O)Nc2ccnc3c(Br)cccc23)cc1Cl` yielded an IC50 of 840 nM. Compound `CC[C@H]1C[N+]2([O-])CC[C@@H]1C[C@H]2[C@H](O)c1cc(-c2ccccc2)nc2ccc(OC)cc12` returned an IC50 of 840 nM. The compound `Cc1cccc(C(=O)Nc2ccnc(N3CCC(N(C)Cc4ccc(C#N)cc4)CC3)c2)c1` had an IC50 of 910 nM. As to `COc1cccc(CC(C)NCC(O)c2cccc(Cl)c2)c1` (stereo unspecified), the IC50 is 1270 nM.

The compound `O=C(/C=C/c1ccc(Cl)c(Cl)c1)NCCCCCN1CCC(NC(=O)Nc2ccc(C(F)(F)F)cc2)C1` (stereo unspecified) had a 50% inhibitory concentration (IC50) of 510 nM.
